The values below come from patent US10053462B2, “P2X7 modulators” (Jansssen Pharmaceutica NV, priority 2013, dated 2018).

This test addresses P2X7 (Homo sapiens (Human), UniProt Q99572). The test can be described thus: P2X7 antagonism in human peripheral blood mononuclear cells (PBMCs), IL-1β release. The following applies: LPS 30 ng/ml + Bz-ATP 0.5 mM, read-out: PBMC 10 μM (% control). The test is classed as cell-based. As to the method:
P2X7 Antagonism in Human Peripheral Blood Mononuclear Cells (PBMCs) and Human Whole Blood.
Human blood was collected using a blood donor program. PBMCs were isolated from blood using a Ficoll density gradient technique. Briefly, blood was laid on Ficoll solution and centrifuged at RT for 20 minutes at 2000 rpm. The buffy layer (between red blood cells and plasma) was carefully collected by aspiration, washed with PBS and centrifuged again at 1500 rpm for 15 minutes. The resulting cell pellet was washed and plated on 96 well-plates for experiments. For the Human Whole Blood experiments, 150 μl of human blood was platted on 96 well-plates. Lipopolysaccharide (LPS) (30 ng/ml) was added to each well and incubated for 1 hour. Test compounds were then added and incubated for 30 minutes. The P2X7 agonist, 2′(3′)-O-(4-benzoylbenzoyl) adenosine 5′-triphosphate (Bz-ATP) was then added at a final concentration of 0.5 mM (PBMC) or 1 mM (blood). Cells were incubated for an additional 1.5 hours. At that point, supernatant was collected and stored for IL-1β assay using manufacturer's protocol for enzyme-linked immunosorbent assay (ELISA). Data was expressed as percent control, where control is defined as the difference in IL-1β release in LPS+Bz-ATP samples and LPS only samples. Data was plotted as response (% control) versus concentration to generate IC50 values. […] Data are analyzed and graphed on Graphpad Prism 5. For analysis, each concentration point is averaged from triplicate values and the averaged values are plotted on Graphpad Prism.

[1] abbreviates: P2X7, Table 2 (additional runs), 10 μM compound.

Where two headings read alike, the source gives them in different places.

Sequence of P2X7 (Q99572 whole entry): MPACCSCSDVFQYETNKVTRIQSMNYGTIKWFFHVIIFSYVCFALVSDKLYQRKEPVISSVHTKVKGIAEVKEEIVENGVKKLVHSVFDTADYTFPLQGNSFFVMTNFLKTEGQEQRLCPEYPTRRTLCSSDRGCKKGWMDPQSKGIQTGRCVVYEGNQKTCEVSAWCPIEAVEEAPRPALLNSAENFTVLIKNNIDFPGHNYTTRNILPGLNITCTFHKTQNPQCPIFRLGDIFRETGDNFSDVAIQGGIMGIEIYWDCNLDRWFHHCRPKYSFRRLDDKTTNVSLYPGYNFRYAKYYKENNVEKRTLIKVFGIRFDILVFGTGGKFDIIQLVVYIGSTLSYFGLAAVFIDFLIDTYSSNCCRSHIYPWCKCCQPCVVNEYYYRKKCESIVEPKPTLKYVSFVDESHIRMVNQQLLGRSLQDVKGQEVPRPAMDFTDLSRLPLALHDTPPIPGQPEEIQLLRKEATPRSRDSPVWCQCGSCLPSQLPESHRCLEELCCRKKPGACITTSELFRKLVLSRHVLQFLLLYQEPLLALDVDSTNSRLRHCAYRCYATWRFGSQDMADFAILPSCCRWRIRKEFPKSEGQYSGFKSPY

Take `O=C(c1cccc(C(F)(F)F)c1Cl)N1[C@@H]2CCC[C@H]1c1nnc(-c3cscn3)n1C2` (stereo in doubt) [Example 9, (6R*,10S*)-11-{[2-Chloro-3-(trifluoromethyl)phenyl]carbonyl}-3-(1,3-thiazol-4-yl)-5,6,7,8,9,10-hexahydro-6,10-epimino[1,2,4]triazolo[4,3-a]azocine]: the remaining activity at 10 µM (P2X7, Table 1, 10 μM compound) is 7.3% and the remaining activity at 10 µM under setting [1] was determined as 7.3%.

In the case of `O=C(c1ccc(Cl)cc1Cl)N1[C@@H]2CCC[C@H]1c1nnc(-c3ncc(F)cn3)n1C2` (stereo in doubt) [Example 21, (6R*,10S*)-11-[(2,4-Dichlorophenyl)carbonyl]-3-(5-fluoropyrimidin-2-yl)-5,6,7,8,9,10-hexahydro-6,10-epimino[1,2,4]triazolo[4,3-a]azocine], the remaining activity at 10 µM was -2.1% (P2X7, Table 1, 10 μM compound) and -2.1% under setting [1].

For `O=C(c1cccc(C(F)(F)F)c1Cl)N1[C@H]2CCC[C@@H]1c1nnc(-c3cccnc3)n1C2` (stereo in doubt) [Example 14, (6S*,10R*)-11-{[2-Chloro-3-(trifluoromethyl)phenyl]carbonyl}-3-pyridin-3-yl-5,6,7,8,9,10-hexahydro-6,10-epimino[1,2,4]triazolo[4,3-a]azocine], the remaining activity at 10 µM runs as follows: (P2X7, Table 1, 10 μM compound) 2.4%; under setting [1], 2.4%.
